Columns and labels:
[1] = test system: Apis mellifera; details: acute, mortality
[2] = test system: Tagia sp.
[3] = test system: Mus musculus; details: chronic; duration: 18 months; body weight
[4] = test system: Rattus norvegicus
[5] = test system: Oncorhynchus mykiss
[6] = test system: Anas platyrhynchos; details: reproductive
[7] = test system: Canidae; details: chronic; duration: 1 years; oral; Dog Other; body weight
[8] = test system: Coturnix japonica; details: acute; oral; mortality
[9] = test system: Daphnia magna; details: chronic/long-term; duration: 21 days; reproduction
[10] = test system: Colinus virginianus; details: acute; oral; diet; mortality

`COC(=O)c1ccc(C(F)(F)F)nc1S(=O)(=O)[N-]C(=O)Nc1nc(OC)cc(OC)n1.[Na+]` [Flupyrsulfuron-methyl sodium] was tested, and the LD50 ([1]; dermal) was greater than 250 µg/piece, the LD50 ([1]; oral, unspecified) was 119 µg/piece and the LC50 ([2]; acute, duration: 14 days, mortality) was greater than 1000 mg/kg. The NOEC ([2]; chronic/long-term, duration: 8 weeks) was 0.065 mg/kg, the NOAEL [3] was 3.51 mg/kg-day and the LD50 ([4]; acute, mortality) was greater than 2500 mg/kg-day. The NOAEL ([4]; developmental, development) was 20 mg/kg-day, the LC50 ([5]; acute, duration: 96 hours, mortality) was 470 µg/mL and the NOEC ([5]; chronic/long-term, duration: 90 days, growth) was 9.2 mg/L. The NOEL [6] was 26 mg/kg-day, the NOAEL [7] was 13.6 mg/kg-day and the LD50 [8] was greater than 2250 mg/kg-day. For the same compound, the NOEC [9] was 16 mg/L and the LD50 [10] was greater than 1610 mg/kg-day.
